Patent US4468385A, “Poly-cation salts of 4-O-poly-hexaose-thio-alkylene sulfate derivatives and method of use” (American Cyanamid Company, priority 1983, dated 1984)
Values joined by “and” are separate entries in the source; they are usually repeats but may differ in a detail not shown here. Equal entries are not always repeated. Structures can show the parent of a compound that is named as a salt.

Assays:
activated human C1 = activated human C1 (Homo sapiens, UniProt P09871); assay: Test Code 026 (C1 inhibitor): protection of fluid phase human C2 from activated human C1 in the presence of C4; type: biochemical; conditions: serial twofold dilution assay; higher well number indicates higher activity
complement system = conditions: literature report; cited from earlier work
[1] = tested on: hereditary angioneurotic edema; conditions: literature report; cited from earlier work
[2] = tested on: total hemolytic complement activity; conditions: in vitro and in vivo, judged by reduction in total hemolytic complement activity; cited from earlier work

## O=S(=O)([O-])OC[C@H]1O[C@@H](SCC(O)C(O)CS)[C@H](OS(=O)(=O)[O-])[C@@H](OS(=O)(=O)[O-])[C@@H]1O[C@H]1O[C@H](COS(=O)(=O)[O-])[C@@H](OS(=O)(=O)[O-])[C@H](OS(=O)(=O)[O-])[C@H]1OS(=O)(=O)[O-].[Na+].[Na+].[Na+].[Na+].[Na+].[Na+].[Na+] (stereo partly drawn) [2,3-Dihydroxy-4-mercaptobutyl 2,3,6-tri-O-sulfo-4-O-(2,3,4,6-tetra-O-sulfo-α-D-glucopyranosyl)-1-thio-β-D-glucopyranoside heptasodium salt]
Activated human C1
  In vitro Activity Cl 026 Wells: 12 Wells

## O=S(=O)(O)OC[C@H]1O[C@H](O[C@H]2[C@H](O)[C@@H](OS(=O)(=O)O)[C@H](SCC(S)CO)O[C@@H]2COS(=O)(=O)O)[C@H](OS(=O)(=O)O)[C@@H](O)[C@@H]1O (stereo partly drawn) [3-Hydroxy-2-mercaptopropyl 4-O-α-D-glucopyranosyl-1-thio-β-D-glucopyranoside-tetrakis-(H-sulfate) tetrasodium salt]
Activated human C1
  In vitro Activity Cl 026 Wells: 6 Wells and 9 Wells

## CC(=O)NC(CCS[C@@H]1O[C@H](COS(=O)(=O)O)[C@@H](O[C@H]2O[C@H](COS(=O)(=O)O)[C@@H](OS(=O)(=O)O)[C@H](OS(=O)(=O)O)[C@H]2OS(=O)(=O)O)[C@H](OS(=O)(=O)O)[C@H]1OS(=O)(=O)O)C(=O)O (stereo partly drawn) [4-[2,3,6-Tri-O-sulfo-4-O-(2,3,4,6-tetra-O-sulfo-α-D-glucopyranosyl)-β-D-glucopyranosyl]-2-acetamido-4-mercaptobutyric acid heptasodium salt]
Activated human C1
  In vitro Activity Cl 026 Wells: 6 Wells

## N[C@@H](CS[C@@H]1O[C@H](COS(=O)(=O)O)[C@@H](O[C@H]2O[C@H](COS(=O)(=O)O)[C@@H](OS(=O)(=O)O)[C@H](OS(=O)(=O)O)[C@H]2OS(=O)(=O)O)[C@H](OS(=O)(=O)O)[C@H]1OS(=O)(=O)O)C(=O)O [4-[2,3,6-Tri-O-sulfo-4-O-(2,3,4,6-tetra-O-sulfo-α-D-glucopyranosyl)-β-D-glucopyranosyl]-L-cysteine heptasodium salt]
Activated human C1
  In vitro Activity Cl 026 Wells: 1 Wells

## Nc1ccc2cc(S(=O)(=O)[O-])cc(O)c2c1N=Nc1ccc(NC(=O)Nc2ccc(N=Nc3c(N)ccc4cc(S(=O)(=O)[O-])cc(O)c34)c(S(=O)(=O)[O-])c2)cc1S(=O)(=O)[O-].[Na+].[Na+].[Na+].[Na+] [chlorazol fast pink, 3,3'-ureylenebis[6-(2-amino-8-hydroxy-6-sulfo-1-naphthylazo)benzenesulfonic acid], tetrasodium salt]
Complement system
  anticomplementary effect: anticomplementary effect

## NCCCCCC(=O)O [epsilon-aminocaproic acid]
[1]
  treatment of hereditary angioneurotic edema: used with success

## NC[C@H]1CC[C@H](C(=O)O)CC1 [tranexamic acid]
[1]
  treatment of hereditary angioneurotic edema: used with success

## heparin
Complement system
  anticomplementary effect: anticomplementary effect

## pentosan- polysulfoester
[2]
  anticomplementary activity on human serum: anticomplementary activity
